Patent US7960377B2 (priority 2008, dated 2011)

Target: T1, rat CB2 receptor (Rattus norvegicus, UniProt Q9QZN9)
T1 sequence (Q9QZN9 1-360): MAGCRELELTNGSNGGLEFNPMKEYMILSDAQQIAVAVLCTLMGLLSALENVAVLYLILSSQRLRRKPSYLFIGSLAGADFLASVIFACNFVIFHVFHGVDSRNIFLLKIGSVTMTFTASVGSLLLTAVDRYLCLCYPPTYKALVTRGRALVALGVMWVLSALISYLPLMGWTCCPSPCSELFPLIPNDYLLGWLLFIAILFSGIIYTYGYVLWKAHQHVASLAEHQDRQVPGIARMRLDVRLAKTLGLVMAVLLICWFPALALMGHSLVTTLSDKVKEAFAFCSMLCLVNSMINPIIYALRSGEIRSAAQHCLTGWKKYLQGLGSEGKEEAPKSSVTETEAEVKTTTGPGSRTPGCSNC
Experiment: cell-based
Type: cell-based

Question: For `CC(C)(C)NC(=O)c1cnc2c(c1)N(S(=O)(=O)N1CCCCC1)CCO2` [Example 2, N-tert-butyl-1-(piperidin-1-ylsulfonyl)-2,3-dihydro-1H-pyrido[2,3-b][1,4]oxazine-7-carboxamide], which EC50 is on record?
Answer: ≤ 30 nM

Question: For `CC(C)CNC(=O)c1cnc2c(c1)N(S(=O)(=O)c1ccc(F)cc1)CCO2` [Example 8, 1-(4-fluorophenyl-sulfonyl)-N-isobutyl-2,3-dihydro-1H-pyrido[2,3-b][1,4]oxazine-7-carboxamide], which EC50 is on record?
Answer: ≤ 30 nM

Question: For `O=C(NC1CCCC1)c1cnc2c(c1)N(S(=O)(=O)c1ccc(F)cc1)CCO2` [Example 10], which EC50 is on record?
Answer: ≤ 30 nM

Question: `CC(C)(CO)NC(=O)c1cnc2c(c1)N(S(=O)(=O)c1ccc(C(F)(F)F)cc1)CCO2` [Example 39, N-(1-hydroxy-2-methyl-propan-2-yl)-1-(4-(trifluoromethyl)phenylsulf-onyl)-2,3-dihydro-1H-pyrido[2,3-b][1,4]oxazine-7-carboxamide] was tested. Which EC50 did it give?
Answer: ≤ 30 nM

Question: For `CCN(C(=O)c1cnc2c(c1)N(S(=O)(=O)c1ccc(C(F)(F)F)cc1)CCO2)C(C)(C)C` [Example 42, N-tert-butyl-N-ethyl-1-(4-(trifluoromethyl)phenylsulf-onyl)-2,3-dihydro-1H-pyrido[2,3-b][1,4]oxazine-7-carboxamide], which EC50 is on record?
Answer: ≤ 30 nM

Question: With `CNC(=O)[C@@H](N(C)C(=O)c1cnc2c(c1)N(S(=O)(=O)c1ccc(F)cc1)CCO2)C(C)(C)C` [Example 58, (S)-N-(3,3-dimethyl-1-(methylamino)-1-oxobutan-2-yl)-1-(4-fluorophenylsulfonyl)-N-methyl-2,3-dihydro-1H-pyrido[2,3-b][1,4]oxazine-7-carboxamide] as the compound, how does the EC50 read?
Answer: ≤ 30 nM

Question: `O=C(NC1(CO)CCCC1)c1cnc2c(c1)N(S(=O)(=O)c1ccc(C(F)(F)F)cc1)CCO2` [Example 67, N-(1-(hydroxymethyl)-cyclopentyl)-1-(4-(trifluoromethyl)phenylsulf-onyl)-2,3-dihydro-1H-pyrido[2,3-b][1,4]oxazine-7-carboxamide] was tested. Which EC50 did it give?
Answer: ≤ 30 nM

Question: Which EC50 does the source give for `C[C@H]1CCCCN1C(=O)c1cnc2c(c1)N(S(=O)(=O)c1ccc(C(F)(F)F)cc1)CCO2` [Example 69, (S)-(2-methylpiperidin-1-yl)(1-(4-(trifluoromethyl)-phenylsulfonyl)-2,3-dihydro-1H-pyrido[2,3-b][1,4]oxazin-7-yl)-methanone] here?
Answer: ≤ 30 nM

Question: Which EC50 does the source give for `CC(C)(CO)NC(=O)c1cnc2c(c1)N(S(=O)(=O)c1ccc(F)cc1F)CCO2` [Example 102, 1-(2,4-difluorophenylsulfonyl)-N-(1-hydroxy-2-methylpropan-2-yl)-2,3-dihydro-1H-pyrido[2,3-b][1,4]oxazine-7-carboxamide] here?
Answer: ≤ 30 nM

Question: With `CC(C)(O)CNC(=O)c1cnc2c(c1)N(S(=O)(=O)c1ccc(F)c(F)c1)CCO2` [Example 109, 1-(3,4-difluorophenylsulfonyl)-N-(2-hydroxy-2-methylpropyl)-2,3-dihydro-1H-pyrido[2,3-b][1,4]oxazine-7-carboxamide] as the compound, how does the EC50 read?
Answer: ≤ 30 nM

Question: Which EC50 does the source give for `O=C(N[C@H]1CCC[C@@H]1O)c1cnc2c(c1)N(S(=O)(=O)c1ccc(Cl)cc1F)CCO2` [Example 111, 1-(4-chloro-2-fluorophenylsulfonyl)-N-((1S,2S)-2-hydroxycyclopentyl)-2,3-dihydro-1H-pyrido[2,3-b][1,4]oxazine-7-carboxamide] here?
Answer: ≤ 30 nM

Question: Which EC50 does the source give for `CC(C)(CN1CCOCC1)NC(=O)c1cnc2c(c1)N(S(=O)(=O)c1ccc(Cl)c(Cl)c1)CCO2` [Example 112, 1-(3,4-dichlorophenylsulfonyl)-N-(2-methyl-1-morpholinopropan-2-yl)-2,3-dihydro-1H-pyrido[2,3-b][1,4]oxazine-7-carboxamide] here?
Answer: ≤ 30 nM

Question: How did the EC50 turn out when `CN(CC(C)(C)CO)C(=O)c1cnc2c(c1)N(S(=O)(=O)c1ccc(Cl)c(Cl)c1)CCO2` [Example 121, 1-(3,4-dichlorophenylsulfonyl)-N-(3-hydroxy-2,2-dimethylpropyl)-N-methyl-2,3-dihydro-1H-pyrido[2,3-b][1,4]oxazine-7-carboxamide] was run?
Answer: ≤ 30 nM

Question: Which EC50 does the source give for `CC1(C)COCN1C(=O)c1cnc2c(c1)N(S(=O)(=O)c1ccc(Cl)c(Cl)c1)CCO2` [Example 124, (1-(3,4-dichlorophenyl-sulfonyl)-2,3-dihydro-1H-pyrido[2,3-b][1,4]oxazin-7-yl)(4,4-dimethyl-oxazolidin-3-yl)methanone] here?
Answer: ≤ 30 nM

Question: `CC(C)(CO)CNC(=O)c1cnc2c(c1)N(S(=O)(=O)c1ccc(Cl)c(Cl)c1)CCO2` [Example 131, 1-(3,4-dichlorophenyl-sulfonyl)-N-(3-hydroxy-2,2-dimethylpropyl)-2,3-dihydro-1H-pyrido[2,3-b][1,4]oxazine-7-carboxamide] was tested. Which EC50 did it give?
Answer: ≤ 30 nM

Question: With `O=C(N[C@H]1CCC[C@H]1O)c1cnc2c(c1)N(S(=O)(=O)c1ccc(Cl)c(Cl)c1)CCO2` [Example 132, 1-(3,4-dichlorophenyl-sulfonyl)-N-((1S,2R)-2-hydroxycyclopentyl)-2,3-dihydro-1H-pyrido[2,3-b][1,4]oxazine-7-carboxamide] as the compound, how does the EC50 read?
Answer: ≤ 30 nM

Question: With `COC(=O)C(C)(C)NC(=O)c1cnc2c(c1)N(S(=O)(=O)c1ccc(Cl)c(Cl)c1)CCO2` [Example 136, methyl 2-(1-(3,4-dichlorophenylsulfonyl)-2,3-dihydro-1H-pyrido[2,3-b][1,4]oxazine-7-carboxamido)-2-methylpropanoate] as the compound, how does the EC50 read?
Answer: ≤ 30 nM

Question: For `CCC(C)(C)NC(=O)c1cnc2c(c1)N(S(=O)(=O)N1CCOCC1)CCO2` [Example 142, 1-(morpholinosulfonyl)-N-tert-pentyl-2,3-dihydro-1H-pyrido[2,3-b][1,4]oxazine-7-carboxamide], which EC50 is on record?
Answer: ≤ 30 nM

Question: `CC(C)(C)NC(=O)c1cnc2c(c1)N(S(=O)(=O)N1CCCC1)CCO2` [Example 148, N-tert-butyl-1-(pyrrolidin-1-ylsulfonyl)-2,3-dihydro-1H-pyrido[2,3-b][1,4]oxazine-7-carboxamide] was tested. Which EC50 did it give?
Answer: ≤ 30 nM

Question: With `CC(C)(CO)NC(=O)c1cnc2c(c1)N(S(=O)(=O)N1CCCC1)CCO2` [Example 149, N-(1-hydroxy-2-methylpropan-2-yl)-1-(pyrrolidin-1-ylsulfonyl)-2,3-dihydro-1H-pyrido[2,3-b][1,4]oxazine-7-carboxamide] as the compound, how does the EC50 read?
Answer: ≤ 30 nM

Question: `CC(C)(C)NC(=O)c1cnc2c(c1)N(S(=O)(=O)N1CCC(C(F)(F)F)CC1)CCO2` [Example 150, N-tert-butyl-1-(4-(trifluoromethyl)piperidin-1-ylsulfonyl)-2,3-dihydro-1H-pyrido[2,3-b][1,4]oxazine-7-carboxamide] was tested. Which EC50 did it give?
Answer: ≤ 30 nM

Question: `CC(C)(CO)NC(=O)c1cnc2c(c1)N(S(=O)(=O)N1CCC(C(F)(F)F)CC1)CCO2` [Example 152, N-(1-hydroxy-2-methylpropan-2-yl)-1-(4-(trifluoromethyl)piperidin-1-ylsulfonyl)-2,3-dihydro-1H-pyrido[2,3-b][1,4]oxazine-7-carboxamide] was tested. Which EC50 did it give?
Answer: ≤ 30 nM

Question: With `CC(C)(CO)CNC(=O)c1cnc2c(c1)N(S(=O)(=O)N1CCC(C(F)(F)F)CC1)CCO2` [Example 155, N-(3-hydroxy-2,2-dimethylpropyl)-1-(4-(trifluoromethyl)piperidin-1-ylsulfonyl)-2,3-dihydro-1H-pyrido[2,3-b][1,4]oxazine-7-carboxamide] as the compound, how does the EC50 read?
Answer: ≤ 30 nM

Question: For `CC(C)(CO)NC(=O)c1cnc2c(c1)N(S(=O)(=O)N1CCC(F)(F)CC1)CCO2` [Example 157, 1-(4,4-difluoropiperidin-1-ylsulfonyl)-N-(1-hydroxy-2-methylpropan-2-yl)-2,3-dihydro-1H-pyrido[2,3-b][1,4]oxazine-7-carboxamide], which EC50 is on record?
Answer: ≤ 30 nM

Target: human CB1 receptor (Homo sapiens, UniProt P21554)
Experiment: cell-based

human CB1 receptor, sequence (P21554 whole entry): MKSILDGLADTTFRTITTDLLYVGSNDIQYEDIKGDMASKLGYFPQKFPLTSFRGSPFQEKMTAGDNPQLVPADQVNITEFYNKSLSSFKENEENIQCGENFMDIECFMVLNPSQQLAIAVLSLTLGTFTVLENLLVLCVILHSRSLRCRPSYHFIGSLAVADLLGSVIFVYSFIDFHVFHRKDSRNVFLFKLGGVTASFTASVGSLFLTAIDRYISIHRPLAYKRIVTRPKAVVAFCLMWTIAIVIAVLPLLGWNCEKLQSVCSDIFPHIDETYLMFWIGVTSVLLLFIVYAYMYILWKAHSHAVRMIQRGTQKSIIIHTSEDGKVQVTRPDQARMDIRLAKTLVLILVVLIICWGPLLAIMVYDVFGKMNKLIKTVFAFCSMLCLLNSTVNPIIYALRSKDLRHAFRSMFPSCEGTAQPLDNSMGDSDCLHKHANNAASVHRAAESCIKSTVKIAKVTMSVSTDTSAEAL

Question: `O=C(OCC1CCCCN1)c1cnc2c(c1)N(S(=O)(=O)c1ccc(C(F)(F)F)cc1)CCO2` (centres unmarked) [Example 202, piperidin-2-ylmethyl 1-(4-(trifluoromethyl)phenylsulfonyl)-2,3-dihydro-1H-pyrido[2,3-b][1,4]oxazine-7-carboxylate] was tested. Which EC50 did it give?
Answer: > 30 µM

Question: How did the EC50 turn out when `CNCCOC(=O)c1cnc2c(c1)N(S(=O)(=O)c1ccc(Cl)c(Cl)c1)CCO2` [Example 203, 2-(methylamino)ethyl 1-(3,4-dichlorophenylsulfonyl)-2,3-dihydro-1H-pyrido[2,3-b][1,4]oxazine-7-carboxylate] was run?
Answer: > 30 µM

Question: Which EC50 does the source give for `CNCC(C)(C)COC(=O)c1cnc2c(c1)N(S(=O)(=O)c1ccc(Cl)c(Cl)c1)CCO2` [Example 204, 2,2-dimethyl-3-(methylamino)propyl 1-(3,4-dichlorophenylsulfonyl)-2,3-dihydro-1H-pyrido[2,3-b][1,4]oxazine-7-carboxylate] here?
Answer: > 30 µM

Question: Which EC50 does the source give for `O=C(c1noc(-c2cnc3c(c2)N(S(=O)(=O)c2ccc(F)cc2)CCO3)n1)N1CCOCC1` [Example 215, (5-(1-(4-fluorophenyl-sulfonyl)-2,3-dihydro-1H-pyrido[2,3-b][1,4]oxazin-7-yl)-1,2,4-oxadiazol-3-yl)(morpholino)methanone] here?
Answer: > 30 µM

Question: For `O=C(NC1CCCC1)c1cnc2c(c1)N(Cc1ccccc1)C(=O)CO2` [Example 219, 1-benzyl-N-cyclopentyl-2-oxo-2,3-dihydro-1H-pyrido[2,3-b] [1,4]oxazine-7-carboxamide], which EC50 is on record?
Answer: > 30 µM

Question: How did the EC50 turn out when `CC(C)(C)NC(=O)c1cnc2c(c1)N(Cc1ccccc1)C(=O)CO2` [Example 220, 1-benzyl-N-tert-butyl-2-oxo-2,3-dihydro-1H-pyrido[2,3-b] [1,4]oxazine-7-carboxamide] was run?
Answer: > 30 µM

Question: With `O=C(NC1CCCC1)c1cnc2c(c1)N(Cc1ccc(F)cc1)C(=O)CO2` [Example 221, N-cyclopentyl-1-(4-fluorobenzyl)-2-oxo-2,3-dihydro-1H-pyrido[2,3-b] [1,4]oxazine-7-carboxamide] as the compound, how does the EC50 read?
Answer: > 30 µM

Question: `O=C(NC1CCCC1)c1cnc2c(c1)N(Cc1ccc(Cl)cc1)C(=O)CO2` [Example 222, 1-(4-chlorobenzyl)-N-cyclopentyl-2-oxo-2,3-dihydro-1H-pyrido[2,3-b][1,4]oxazine-7-carboxamide] was tested. Which EC50 did it give?
Answer: > 30 µM
